The assay concerns the target T1, human CRTH2 (Homo sapiens, UniProt Q9Y5Y4).
T1 sequence (Q9Y5Y4 1-395): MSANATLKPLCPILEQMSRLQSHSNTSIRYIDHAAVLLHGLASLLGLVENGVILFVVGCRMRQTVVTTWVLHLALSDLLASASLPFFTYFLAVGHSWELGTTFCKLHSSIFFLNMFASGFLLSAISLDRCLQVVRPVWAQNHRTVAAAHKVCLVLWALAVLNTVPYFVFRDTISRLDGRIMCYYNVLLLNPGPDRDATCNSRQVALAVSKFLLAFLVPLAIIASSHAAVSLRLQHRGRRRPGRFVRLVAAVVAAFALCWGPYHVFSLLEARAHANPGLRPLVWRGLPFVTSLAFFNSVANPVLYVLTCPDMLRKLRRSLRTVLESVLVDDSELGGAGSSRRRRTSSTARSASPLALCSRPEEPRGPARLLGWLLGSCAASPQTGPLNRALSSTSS
The assay can be described thus: Human CRTH2 Receptor Binding Assay (whole cell, [3H]ramatroban). The arrangement: expressed in transfected cells; host or cells: CHO-K1. Particulars: whole CHO-K1 cells stably expressing human CRTH2 and G-alpha16; 20 nM [3H]ramatroban; 1 hour, room temperature. An excerpt: A whole cell receptor binding assay using [^3H]ramatroban as the competing radioactive ligand was employed to evaluate the compound binding activity to human CRTH2. The radioactive ligand [^3H]ramatroban was synthesized according to Sugimoto et. al. (Eur. J. Pharmacol. 524, 30-37, 2005) to a specific activity of 42 Ci/mmol.
A cell line stably expressing human CRTH2 was established by transfecting CHO-K1 cells with two mammalian expression vectors that harbored human CRTH2 and G-alpha16 cDNAs, respectively, using FuGene® 6 transfection reagent (from Roche). Stable clones expressing CRTH2 were selected by staining each clone with BM16 (BD Pharmingen™ from BD Biosciences, a division of Becton, Dickinson and Company), which is a rat monoclonal antibody to human CRTH2. The cells were maintained as monolayer cultures in Ham's F-12 medium containing 10% fetal bovine serum, 100 units/mL penicillin, 100 μg/mL streptomycin, 2 mM glutamine, 0.5 mg/mL G418 (geneticin) for CRTH2, and 0.2 mg/mL hygromycin-B (for G-alpha 16). For whole cell receptor binding assay, the monolayer cells were rinsed once with PBS (phosphate buffered saline), dissociated using ethylenediaminetetraacetate (Versene™ EDTA from Lonza Inc.), and suspended in PBS containing 10 mM MgCl2 and 0.06% BSA (bovine serum albumin) at 1.5×10^6 cells/mL.
The binding reactions (0.2 mL) were performed in 96-well plates at room temperature in PBS containing 1.5×10^5 cells, 10 mM MgCl2, 0.06% BSA, 20 nM [^3H]ramatroban, and test compound at various concentrations. After 1 hour of binding reactions, the cells were harvested on GF™/B filter microplates (microtiter plates with embedded glass fiber from PerkinElmer, Inc.) and washed 5 times with PBS using a Filtermate™ Harvester (a cell harvester that harvests and washes cells from microplates from PerkinElmer, Inc.). The radioactivities bound to the cells were determined using a microplate scintillation counter (TopCount® NXT, from PerkinElmer, Inc.) after adding 50 μL of Microscint™ 20 scintillation fluid (from PerkinElmer, Inc.) to each well of the filter plates. The radioactivity from non-specific binding was determined by replacing compound with 10 μM of 15(R)-15-methyl PGD2 (from Cayman Chemical Company) in the reaction mixtures. The radioactivity bound to the cells in the absence of compound (total binding) was determined by replacing compound with 0.25% of DMSO (dimethyl sulfoxide) in the reaction mixture. Specific binding data were obtained by subtracting the radioactivity of non-specific binding from each binding data.
The IC50 value is defined as the concentration of the tested compound that is required for 50% inhibition of total specific binding. In order to calculate the IC50 value, the percent inhibition data were determined for 7 concentrations for each compound. The percent inhibition for a compound at each concentration was calculated according to the following formula, [1-(specific binding in the presence of compound)/(total specific binding)]×100. The IC50 value was then obtained by fitting the percent inhibition data to a sigmoidal dose-response (4 parameter logistic) model in the XLfit® software Excel add-in program [from ID Business Solutions Ltd., model 205, where F(x)=(A+(B−A)/(1+((C/x)^D)))].

In general, IC50 refers to the concentration that gives 50% inhibition. Take `CCS(=O)(=O)N1CCN(C(=O)c2c(C)c(CC(=O)O)cc3ccc(F)cc23)CC1` [Example 1-1, [4-(4-Ethanesulfonyl-piperazine-1-carbonyl)-6-fluoro-3-methyl-naphthalen-2-yl]-acetic acid]: the IC50 turned out to be 19.2 nM.

The compound `CCS(=O)(=O)N1CCN(C(=O)c2cc(CC(=O)O)cc3ccc(F)cc23)CC1` [Example 1-2, [4-(4-Ethanesulfonyl-piperazine-1-carbonyl)-6-fluoro-naphthalen-2-yl]-acetic acid] came in with an IC50 of 7.2 nM.

Consider `Cc1c(CC(=O)O)cc2ccc(F)cc2c1C(=O)N1CCN(S(C)(=O)=O)CC1` [Example 1-3, [6-Fluoro-4-(4-methanesulfonyl-piperazine-1-carbonyl)-3-methyl-naphthalen-2-yl]-acetic acid], for which the 50% inhibitory concentration (IC50) turned out to be 21.2 nM.

The compound `Cc1c(CC(=O)O)cc2ccc(F)cc2c1C(=O)N1CCN(S(=O)(=O)C(C)C)CC1` [Example 1-4, {6-Fluoro-3-methyl-4-[4-(propane-2-sulfonyl)-piperazine-1-carbonyl]-naphthalen-2-yl}-acetic acid] yielded an IC50 of 15.5 nM.

Compound `Cc1c(CC(=O)O)cc2ccc(F)cc2c1C(=O)N1CCN(S(=O)(=O)C(F)(F)F)CC1` [Example 1-5, [6-Fluoro-3-methyl-4-(4-trifluoromethanesulfonyl-piperazine-1-carbonyl)-naphthalen-2-yl]-acetic acid] had an IC50 of 7.6 nM. Compared with the last compound, the IC50 is about 2-fold lower.

As to `Cc1c(CC(=O)O)cc2ccc(F)cc2c1C(=O)N1CCN(S(=O)(=O)C2CC2)CC1` [Example 1-6, [4-(4-Cyclopropanesulfonyl-piperazine-1-carbonyl)-6-fluoro-3-methyl-naphthalen-2-yl]-acetic acid], the half-maximal inhibitory concentration (IC50) was 9.1 nM.

As for `CCCS(=O)(=O)N1CCN(C(=O)c2cc(CC(=O)O)cc3ccc(F)cc23)CC1` [Example 1-7, {6-Fluoro-4-[4-(propane-1-sulfonyl)-piperazine-1-carbonyl]-naphthalen-2-yl}-acetic acid], the IC50 is 6.5 nM.

In turn, `Cc1c(CC(=O)O)cc2ccc(F)cc2c1C(=O)N1CCN(S(=O)(=O)C2CCCC2)CC1` [Example 1-8, [4-(4-Cyclopentanesulfonyl-piperazine-1-carbonyl)-6-fluoro-3-methyl-naphthalen-2-yl]-acetic acid] came in with an IC50 of 6.9 nM.

`Cc1c(CC(=O)O)cc2ccc(F)cc2c1C(=O)N1CCN(S(=O)(=O)c2ccccc2)CC1` [Example 1-9, [4-(4-Benzenesulfonyl-piperazine-1-carbonyl)-6-fluoro-3-methyl-naphthalen-2-yl]-acetic acid] had an IC50 of 3.7 nM.

`Cc1c(CC(=O)O)cc2ccc(F)cc2c1C(=O)N1CC2(C1)CN(S(=O)(=O)c1ccccc1)C2` [Example 1-10, [4-(6-Benzenesulfonyl-2,6-diaza-spiro[3.3]heptane-2-carbonyl)-6-fluoro-3-methyl-naphthalen-2-yl]-acetic acid] displayed an IC50 of 207 nM.

`Cc1c(CC(=O)O)cc2ccc(F)cc2c1C(=O)N1CC2(C1)CN(S(=O)(=O)Cc1ccccc1)C2` [Example 1-11, [6-Fluoro-3-methyl-4-(6-phenylmethanesulfonyl-2,6-diaza-spiro[3.3]heptane-2-carbonyl)-naphthalen-2-yl]-acetic acid]: the IC50 amounted to 88.3 nM.

`Cc1c(CC(=O)O)cc2ccc(F)cc2c1C(=O)N1CCN(S(=O)(=O)c2ccc(F)cc2)CC1` [Example 1-12, {6-Fluoro-4-[4-(4-fluoro-benzenesulfonyl)-piperazine-1-carbonyl]-3-methyl-naphthalen-2-yl}-acetic acid]: the IC50 was 8.3 nM.

`Cc1c(CC(=O)O)cc2ccc(F)cc2c1C(=O)N1CCN(S(=O)(=O)Cc2ccccc2)CC1` [Example 1-13, [6-Fluoro-3-methyl-4-(4-phenylmethanesulfonyl-piperazine-1-carbonyl)-naphthalen-2-yl]-acetic acid] yielded an IC50 of 5.4 nM.

In turn, `Cc1c(CC(=O)O)cc2ccc(F)cc2c1C(=O)N1CCN(S(=O)(=O)c2ccccc2F)CC1` [Example 1-14, {6-Fluoro-4-[4-(2-fluoro-benzenesulfonyl)-piperazine-1-carbonyl]-3-methyl-naphthalen-2-yl}-acetic acid] had an IC50 of 4.8 nM.

`Cc1c(CC(=O)O)cc2ccc(F)cc2c1C(=O)N1CCN(S(=O)(=O)c2ccc(F)c(F)c2)CC1` [Example 1-15, {4-[4-(3,4-Difluoro-benzenesulfonyl)-piperazine-1-carbonyl]-6-fluoro-3-methyl-naphthalen-2-yl}-acetic acid] registered an IC50 of 2.6 nM.

Compound `Cc1c(CC(=O)O)cc2ccc(F)cc2c1C(=O)N1CCN(S(=O)(=O)c2cccc(F)c2)CC1` [Example 1-16, {6-Fluoro-4-[4-(3-fluoro-benzenesulfonyl)-piperazine-1-carbonyl]-3-methyl-naphthalen-2-yl}-acetic acid] showed an IC50 of 3.1 nM.

`Cc1c(CC(=O)O)cc2ccc(F)cc2c1C(=O)N1CCN(S(=O)(=O)c2ccc(F)cc2F)CC1` [Example 1-17, {4-[4-(2,4-Difluoro-benzenesulfonyl)-piperazine-1-carbonyl]-6-fluoro-3-methyl-naphthalen-2-yl}-acetic acid] showed a 50% inhibitory concentration (IC50) of 3.7 nM.

Compound `O=C(O)Cc1cc(C(=O)N2CCN(S(=O)(=O)c3ccccc3)CC2)c2cc(C(F)(F)F)ccc2c1` [Example 1-18, [4-(4-Benzenesulfonyl-piperazine-1-carbonyl)-6-trifluoromethyl-naphthalen-2-yl]-acetic acid] came in with an IC50 of 6 nM. Compared with the last compound, the IC50 is about 1.6-fold higher.

`O=C(O)Cc1cc(C(=O)N2CCN(S(=O)(=O)c3ccccc3)CC2)c2cc(OC(F)(F)F)ccc2c1` [Example 1-19, [4-(4-Benzenesulfonyl-piperazine-1-carbonyl)-6-trifluoromethoxy-naphthalen-2-yl]-acetic acid] registered a concentration for half-maximal inhibition (IC50) of 1.7 nM.

Consider `Cc1c(CC(=O)O)cc2ccc(F)cc2c1C(=O)N1CCN(c2ccc(F)cc2)CC1` [Example 2-1, {6-Fluoro-4-[4-(4-fluoro-phenyl)-piperazine-1-carbonyl]-3-methyl-naphthalen-2-yl}-acetic acid], for which the IC50 amounted to 18.2 nM.

For `Cc1c(CC(=O)O)cc2ccc(F)cc2c1C(=O)N1CCN(c2ccccn2)CC1` [Example 2-2, [6-Fluoro-3-methyl-4-(4-pyridin-2-yl-piperazine-1-carbonyl)-naphthalen-2-yl]-acetic acid], the IC50 was 2.6 nM.

Turning to `Cc1c(CC(=O)O)cc2ccc(F)cc2c1C(=O)N1CCN(c2ccccc2F)CC1` [Example 2-3, {6-Fluoro-4-[4-(2-fluoro-phenyl)-piperazine-1-carbonyl]-3-methyl-naphthalen-2-yl}-acetic acid], the IC50 came to 151 nM.

Compound `Cc1c(CC(=O)O)cc2ccc(F)cc2c1C(=O)N1CCN(c2ccccc2)CC1` [Example 2-4, [6-Fluoro-3-methyl-4-(4-phenyl-piperazine-1-carbonyl)-naphthalen-2-yl]-acetic acid] came in with an IC50 of 59.1 nM.

With `Cc1c(CC(=O)O)cc2ccc(F)cc2c1C(=O)N1CCN(c2ncccn2)CC1` [Example 2-5, [6-Fluoro-3-methyl-4-(4-pyrimidin-2-yl-piperazine-1-carbonyl)-naphthalen-2-yl]-acetic acid], the IC50 was found to be 276 nM. This IC50 lies about 4.7-fold higher than the previous one.

The compound `Cc1cccc(N2CCN(C(=O)c3c(C)c(CC(=O)O)cc4ccc(F)cc34)CC2)c1` [Example 2-6, [6-Fluoro-3-methyl-4-(4-m-tolyl-piperazine-1-carbonyl)-naphthalen-2-yl]-acetic acid] displayed a 50% inhibitory concentration (IC50) of 81.5 nM.

The record behind these values is US8188090B2, “Naphthylacetic acids” (Hoffman-La Roche Inc., priority 2008, dated 2012).
